From US7537906B2, “Apoptosis inducer and method of screening for a substance inhibiting acylated homoserine lactone” (priority 2003, dated 2009) come the findings set out here.

For one assay, the system named is JNK. Briefly: MAP kinase activity by Western blot in CaCo-2 cells: phosphorylated JNK. The class given is cell-based, human. Particulars: 10 minutes. Here is the method: (§1) A CaCo-2 carcinoma cell line of human colon cancer was purchased from American Type Culture Collection (ATCC), and cultured at 37° C. in the presence of 5% CO2 using a DMEM medium containing 10% FCS, 1% NEAA and 1% P/S (100 units/ml penicillin and 100 μg/ml streptomycin).
6×10^5 CaCo-2 cells were inoculated per dish using 6 cm dishes (NUNC), washed twice with phosphate buffered saline (PBS) (-), and then cultured in a serum-free DMEM medium containing 1% NEAA for 24 hours. Subsequently, at a final concentration of 100 μM, homoserine lactone hydrochloride and N-(3-oxododecanoyl)-L-homoserine lactone were each added, and then each solution was allowed to react for 10 minutes. […]
After reaction, the product was washed twice with cold PBS (-), and then frozen at −80° C. […] Concentration of the collected protein was measured, and then the protein equivalent to 50 μg was subjected to SDS-PAGE. […] When phosphorylated ERK, JNK, p38 and Akt were measured, blocking was carried out with 0.1% Tween 20 (TBS-T) containing 5% skim milk/Tris-buffered saline. […]
(§2) After cell culture, MAP kinase activity and Akt activity were analyzed by Western blot in a manner similar to that used in (1), except that N-(3-oxododecanoyl)-L-homoserine lactones in final concentrations of 0 μM (0.25% DMSO), 1 μM, 10 μM, 30 μM and 100 μM were each added and each solution was allowed to react for 10 minutes (FIG. 8).
A general note: A western blot detects proteins with antibodies after separation by electrophoresis.

The test system of a further assay is p38. Briefly: MAP kinase activity by Western blot in CaCo-2 cells: phosphorylated p38. The assay is classed as cell-based, human. Here is the method:
as §1
6×10^5 CaCo-2 cells were inoculated per dish using 6 cm dishes (NUNC), washed twice with phosphate buffered saline (PBS) (-), and then cultured in a serum-free DMEM medium containing 1% NEAA for 24 hours. Subsequently, at a final concentration of 100 μM, homoserine lactone hydrochloride and N-(3-oxododecanoyl)-L-homoserine lactone were each added, and then each solution was allowed to react for 10 minutes. Furthermore, purified acylated homoserine lactone used herein had been dissolved in DMSO in a concentration 400 times higher than the target final concentration, and then subjected to filter sterilization (φ 0.22 μm). As a control, DMSO with a final concentration of 0.25% was used. In addition, α-tubulin was used as an internal standard.
After reaction, the product was washed twice with cold PBS (-), and then frozen at −80° C. The cells were thawed on ice. 200 μl of a lysis buffer (50 mM HEPES, pH 7.5, 50 mM NaCl, 1 mM EDTA, 1.5 mM MgCl2, 1% Triton X-100, 10% glycerin, 10 mM sodium pyrophosphate, 1 mM Na3VO4, 100 mM NaF, 1 mM PMSF, 10 μg/ml aprotinin and 10 μg/ml leupeptin) was added to the cells, and then the cells were scraped off using a scraper. The cells were allowed to stand on ice for 20 minutes, and then centrifuged at 14000 rpm at 4° C. for 15 minutes, thereby collecting the supernatant. Concentration of the collected protein was measured, and then the protein equivalent to 50 μg was subjected to SDS-PAGE. After electrophoresis, the product was blotted on a PVDF membrane. When phosphorylated ERK, JNK, p38 and Akt were measured, blocking was carried out with 0.1% Tween 20 (TBS-T) containing 5% skim milk/Tris-buffered saline. As primary antibodies, an anti-phospho-p44/42 MAP kinase antibody, an anti-phospho-SAPK/JNK antibody, an anti-phospho-p38 MAP kinase antibody, and an anti-phospho-Akt ([…]) antibody were each used. As a secondary antibody, an HRP-labeled anti-rabbit IgG antibody was used. For the α-tubulin used as an internal standard, blocking was carried out with 5% bovine serum albumin (BSA)/TBS-T, and an anti-α-tubulin (Ab-1) antibody and an HRP-labeled anti-mouse IgG antibody were used as a primary antibody and a secondary antibody, respectively. For band detection, Renaissance™ Western Blot Chemiluminescence […] Reagent Plus (NEN) or Western Blotting Luminol Reagent (SANTA CRUZ BIOTECHNOLOGY) was used.
as §2
After cell culture, N-(3-oxododecanoyl)-L-homoserine lactone with final concentrations of 30 μM and 100 μM were added. For each case, MAP kinase activity and Akt activity were measured by Western blot in a manner similar to that in (1), except for carrying out stimulation with acylated homoserine lactone in a short time course of 0, 5, 10, 30 and 60 minutes (FIG. 11), and in a long time course of 0, 10 minutes, 60 minutes, 2 hours, 4 hours, 6 hours, 8 hours and 10 hours (FIG. 12). In the case of stimulation at 30 μM, both ERK and p38 activities increased with a peak at 10 minutes. However, while ERK activity returned to the base level within 30 minutes, p38 activity lasted until 4 hours after stimulation. The inhibition of Akt activity in the case of stimulation at 30 μM peaked at 5 minutes and lasted until 60 minutes after stimulation, and returned to the base level within 2 hours. ERK activation took place with two steps in the case of stimulation at 100 μM. […]

The structures appear in SMILES notation.

Consider `CCCCCCCCCC(=O)CC(=O)N[C@H]1CCOC1=O` [N-(3-oxododecanoyl)-L-homoserine lactone], for which, in the assay with JNK (0-100 μM), the “JNK activity, concentration dependence” value was “no concentration-dependent significant difference”. For the same compound, the “activation of JNK” value with JNK (100 μM) is given as “promoted”. In the assay with p38 (10 μM, 10 minutes), the p38 activity increase worked out at 3.2 times. Also, in the assay on p38 (30 μM, 10 minutes), the p38 activity increase came out at 4.4 times. In addition, in the assay on p38 (100 μM, 10 minutes), the “activation of p38” value is “promoted” and the p38 activity increase is listed as 5.4 times. Also, the “concentration at which levels of phosphorylated p38 significantly increased” value in the assay on p38 (10 minutes) was not below 10 µM. In the assay on p38 (stimulation at 30 μM), the “p38 activity lasted until (after stimulation)” value stood at 4 h and the “time of peak p38 activity” value is 10 min. Moreover, in the assay with p38 (stimulation at 100 μM), the “p38 activity lasted until (after stimulation)” value worked out at 8 h and the “time of peak p38 activation” value was 5 min.
